Laboratory results: PubChem BioAssay (NCI)
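Results reflect a 48-hour exposure of cells in 96-well plates to compound at five concentrations. At the TGI there is no net growth.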

Legend:
Assay in all cases: NCI tumour cell line growth inhibition, 48 h
SF-539 CNS = test system: SF-539 CNS
DMS 114 small cell lung = test system: DMS 114 small cell lung
SNB-78 CNS = test system: SNB-78 CNS
HT29 colon = test system: HT29 colon
786-0 renal = test system: 786-0 renal
HOP-62 NSCLC = test system: HOP-62 NSCLC
OVCAR-8 ovarian = test system: OVCAR-8 ovarian
A498 renal = test system: A498 renal
HOP-18 NSCLC = test system: HOP-18 NSCLC
UO-31 renal = test system: UO-31 renal
UACC-257 melanoma = test system: UACC-257 melanoma
SK-MEL-2 melanoma = test system: SK-MEL-2 melanoma
SF-295 CNS = test system: SF-295 CNS
TK-10 renal = test system: TK-10 renal
UACC-62 melanoma = test system: UACC-62 melanoma
EKVX NSCLC = test system: EKVX NSCLC
MOLT-4 leukemia = test system: MOLT-4 leukemia
SN12C renal = test system: SN12C renal
HCC-2998 colon = test system: HCC-2998 colon
SNB-19 CNS = test system: SNB-19 CNS
SK-MEL-5 melanoma = test system: SK-MEL-5 melanoma
RXF-631 renal = test system: RXF-631 renal
A549 NSCLC = test system: A549 NSCLC
DMS 273 small cell lung = test system: DMS 273 small cell lung
DLD-1 colon = test system: DLD-1 colon
CCRF-CEM leukemia = test system: CCRF-CEM leukemia
SK-MEL-28 melanoma = test system: SK-MEL-28 melanoma
KM12 colon = test system: KM12 colon
RPMI-8226 leukemia = test system: RPMI-8226 leukemia
HOP-92 NSCLC = test system: HOP-92 NSCLC
CAKI-1 renal = test system: CAKI-1 renal
XF 498 CNS = test system: XF 498 CNS
IGROV1 ovarian = test system: IGROV1 ovarian
NCI-H23 lung = test system: NCI-H23 lung
ACHN renal = test system: ACHN renal
LOX IMVI melanoma = test system: LOX IMVI melanoma
OVCAR-5 ovarian = test system: OVCAR-5 ovarian
NCI-H460 lung = test system: NCI-H460 lung
KM20L2 colon = test system: KM20L2 colon
OVCAR-3 ovarian = test system: OVCAR-3 ovarian
MALME-3M melanoma = test system: MALME-3M melanoma
K-562 leukemia = test system: K-562 leukemia
M14 melanoma = test system: M14 melanoma
SW-620 colon = test system: SW-620 colon
SR leukemia = test system: SR leukemia
SF-268 CNS = test system: SF-268 CNS
LXFL 529 NSCLC = test system: LXFL 529 NSCLC
NCI-H226 lung = test system: NCI-H226 lung
HCT-15 colon = test system: HCT-15 colon
M19-MEL melanoma = test system: M19-MEL melanoma
RXF 393 renal = test system: RXF 393 renal
HCT-116 colon = test system: HCT-116 colon
HL-60(TB) leukemia = test system: HL-60(TB) leukemia
OVCAR-4 ovarian = test system: OVCAR-4 ovarian
SNB-75 CNS = test system: SNB-75 CNS
NCI-H522 lung = test system: NCI-H522 lung
COLO 205 colon = test system: COLO 205 colon
SK-OV-3 ovarian = test system: SK-OV-3 ovarian
U251 CNS = test system: U251 CNS

How did the TGI (SF-539 CNS) turn out when CCC1C(=O)OCc2c1cc1n(c2=O)Cc2ccccc2-1 (centres undefined) was run?
Its TGI is over 100 µM.

What about the TGI (DMS 114 small cell lung) of the same molecule?
The TGI was over 100 µM.

What about the TGI (SNB-78 CNS) of the same molecule?
Its TGI is over 100 µM.

And the TGI (HT29 colon)?
The TGI was over 100 µM.

What about the TGI (786-0 renal) of the same molecule?
Its TGI is over 100 µM.

What about the TGI (HOP-62 NSCLC) of the same molecule?
The TGI was over 100 µM.

And the TGI (OVCAR-8 ovarian)?
The TGI was over 100 µM.

What about the TGI (A498 renal) of the same molecule?
The TGI was over 100 µM.

And the TGI (HOP-18 NSCLC)?
Its TGI is over 100 µM.

What about the TGI (UO-31 renal) of the same molecule?
Its TGI is over 100 µM.

What about the TGI (UACC-257 melanoma) of the same molecule?
The TGI was over 100 µM.

And the TGI (SK-MEL-2 melanoma)?
The TGI was over 100 µM.

What about the TGI (SF-295 CNS) of the same molecule?
Its TGI is over 100 µM.

And the TGI (TK-10 renal)?
Its TGI is over 100 µM.

What about the TGI (UACC-62 melanoma) of the same molecule?
Its TGI is over 100 µM.

What about the TGI (EKVX NSCLC) of the same molecule?
Its TGI is over 100 µM.

And the TGI (MOLT-4 leukemia)?
The TGI was over 100 µM.

What about the TGI (SN12C renal) of the same molecule?
Its TGI is over 100 µM.

And the TGI (HCC-2998 colon)?
The TGI was over 100 µM.

What about the TGI (SNB-19 CNS) of the same molecule?
The TGI was over 100 µM.

What about the TGI (SK-MEL-5 melanoma) of the same molecule?
Its TGI is over 100 µM.

What about the TGI (RXF-631 renal) of the same molecule?
Its TGI is over 100 µM.

What about the TGI (A549 NSCLC) of the same molecule?
Its TGI is over 100 µM.

What about the TGI (DMS 273 small cell lung) of the same molecule?
Its TGI is over 100 µM.

What about the TGI (DLD-1 colon) of the same molecule?
Its TGI is over 100 µM.

What about the TGI (CCRF-CEM leukemia) of the same molecule?
Its TGI is over 100 µM.

What about the TGI (SK-MEL-28 melanoma) of the same molecule?
The TGI was over 100 µM.

And the TGI (KM12 colon)?
Its TGI is over 100 µM.

And the TGI (RPMI-8226 leukemia)?
The TGI was over 100 µM.

And the TGI (HOP-92 NSCLC)?
The TGI was over 100 µM.

And the TGI (CAKI-1 renal)?
Its TGI is over 100 µM.

And the TGI (XF 498 CNS)?
The TGI was over 100 µM.

What about the TGI (IGROV1 ovarian) of the same molecule?
The TGI was over 100 µM.

And the TGI (NCI-H23 lung)?
The TGI was over 100 µM.

What about the TGI (ACHN renal) of the same molecule?
Its TGI is over 100 µM.

What about the TGI (LOX IMVI melanoma) of the same molecule?
Its TGI is over 100 µM.

And the TGI (OVCAR-5 ovarian)?
Its TGI is over 100 µM.

What about the TGI (NCI-H460 lung) of the same molecule?
Its TGI is over 100 µM.

What about the TGI (KM20L2 colon) of the same molecule?
Its TGI is over 100 µM.

And the TGI (OVCAR-3 ovarian)?
The TGI was over 100 µM.

What about the TGI (MALME-3M melanoma) of the same molecule?
The TGI was over 100 µM.

And the TGI (K-562 leukemia)?
Its TGI is over 100 µM.

What about the TGI (M14 melanoma) of the same molecule?
Its TGI is over 100 µM.

What about the TGI (SW-620 colon) of the same molecule?
Its TGI is over 100 µM.

What about the TGI (SR leukemia) of the same molecule?
The TGI was over 100 µM.

What about the TGI (SF-268 CNS) of the same molecule?
Its TGI is over 100 µM.

What about the TGI (LXFL 529 NSCLC) of the same molecule?
Its TGI is over 100 µM.

What about the TGI (NCI-H226 lung) of the same molecule?
The TGI was over 100 µM.

And the TGI (HCT-15 colon)?
The TGI was over 100 µM.

What about the TGI (M19-MEL melanoma) of the same molecule?
The TGI was over 100 µM.

And the TGI (RXF 393 renal)?
The TGI was over 100 µM.

What about the TGI (HCT-116 colon) of the same molecule?
The TGI was over 100 µM.

What about the TGI (HL-60(TB) leukemia) of the same molecule?
The TGI was over 100 µM.

And the TGI (OVCAR-4 ovarian)?
Its TGI is over 100 µM.

And the TGI (SNB-75 CNS)?
Its TGI is over 100 µM.

With Cc1cccc2c1C(=O)OC2(c1cccc2ccccc12)c1cccc2ccccc12 as the molecule, how does the TGI (DMS 114 small cell lung) read?
Its TGI is over 100 µM.

And the TGI (HT29 colon)?
The TGI was over 100 µM.

What about the TGI (786-0 renal) of the same molecule?
Its TGI is over 100 µM.

What about the TGI (HOP-62 NSCLC) of the same molecule?
Its TGI is over 100 µM.

And the TGI (OVCAR-8 ovarian)?
The TGI was over 100 µM.

What about the TGI (A498 renal) of the same molecule?
The TGI was over 100 µM.

What about the TGI (HOP-18 NSCLC) of the same molecule?
The TGI was over 100 µM.

And the TGI (NCI-H522 lung)?
The TGI was over 100 µM.

What about the TGI (UO-31 renal) of the same molecule?
Its TGI is over 100 µM.

And the TGI (UACC-257 melanoma)?
The TGI was over 100 µM.

And the TGI (SK-MEL-2 melanoma)?
Its TGI is over 100 µM.

And the TGI (SF-295 CNS)?
Its TGI is over 100 µM.

And the TGI (TK-10 renal)?
The TGI was over 100 µM.

And the TGI (UACC-62 melanoma)?
Its TGI is over 100 µM.

What about the TGI (EKVX NSCLC) of the same molecule?
Its TGI is over 100 µM.

And the TGI (MOLT-4 leukemia)?
Its TGI is over 100 µM.

What about the TGI (SN12C renal) of the same molecule?
Its TGI is over 100 µM.

What about the TGI (COLO 205 colon) of the same molecule?
Its TGI is over 100 µM.

And the TGI (HCC-2998 colon)?
The TGI was over 100 µM.

What about the TGI (SNB-19 CNS) of the same molecule?
Its TGI is over 100 µM.

What about the TGI (SK-MEL-5 melanoma) of the same molecule?
The TGI was over 100 µM.

And the TGI (RXF-631 renal)?
The TGI was 51.4 µM.

And the TGI (A549 NSCLC)?
The TGI was over 100 µM.

What about the TGI (DMS 273 small cell lung) of the same molecule?
The TGI was over 100 µM.

What about the TGI (DLD-1 colon) of the same molecule?
Its TGI is over 100 µM.

And the TGI (CCRF-CEM leukemia)?
Its TGI is over 100 µM.

What about the TGI (SK-OV-3 ovarian) of the same molecule?
Its TGI is over 100 µM.

What about the TGI (SK-MEL-28 melanoma) of the same molecule?
The TGI was over 100 µM.

And the TGI (KM12 colon)?
Its TGI is over 100 µM.

And the TGI (CAKI-1 renal)?
Its TGI is over 100 µM.

And the TGI (IGROV1 ovarian)?
Its TGI is over 100 µM.

And the TGI (NCI-H23 lung)?
Its TGI is over 100 µM.

What about the TGI (ACHN renal) of the same molecule?
Its TGI is over 100 µM.

And the TGI (LOX IMVI melanoma)?
Its TGI is over 100 µM.

And the TGI (OVCAR-5 ovarian)?
Its TGI is over 100 µM.

What about the TGI (NCI-H460 lung) of the same molecule?
The TGI was over 100 µM.

What about the TGI (KM20L2 colon) of the same molecule?
Its TGI is over 100 µM.

What about the TGI (OVCAR-3 ovarian) of the same molecule?
The TGI was over 100 µM.

What about the TGI (U251 CNS) of the same molecule?
Its TGI is over 100 µM.

And the TGI (MALME-3M melanoma)?
Its TGI is over 100 µM.

What about the TGI (K-562 leukemia) of the same molecule?
The TGI was over 100 µM.

What about the TGI (M14 melanoma) of the same molecule?
Its TGI is over 100 µM.

And the TGI (SW-620 colon)?
Its TGI is over 100 µM.

What about the TGI (SR leukemia) of the same molecule?
Its TGI is over 100 µM.

What about the TGI (SF-268 CNS) of the same molecule?
The TGI was over 100 µM.

What about the TGI (LXFL 529 NSCLC) of the same molecule?
The TGI was over 100 µM.

What about the TGI (NCI-H226 lung) of the same molecule?
The TGI was over 100 µM.

And the TGI (HCT-15 colon)?
The TGI was over 100 µM.

And the TGI (M19-MEL melanoma)?
Its TGI is over 100 µM.

And the TGI (RXF 393 renal)?
The TGI was 94.3 µM.

What about the TGI (HCT-116 colon) of the same molecule?
Its TGI is over 100 µM.

And the TGI (HL-60(TB) leukemia)?
The TGI was over 100 µM.

What about the TGI (OVCAR-4 ovarian) of the same molecule?
The TGI was over 100 µM.

And the TGI (SNB-75 CNS)?
Its TGI is over 100 µM.
